Data reported in paper PMC10201049, “Rhein-attenuates LPS-induced acute lung injury via targeting NFATc1/Trem2 axis” (Inflammation Research, 2023).

Target: T1, NFATc1 (Mus musculus, UniProt O88942)
T1 construct: endogenous protein in RAW264.7 cell lysate
T1 sequence (O88942 1-717): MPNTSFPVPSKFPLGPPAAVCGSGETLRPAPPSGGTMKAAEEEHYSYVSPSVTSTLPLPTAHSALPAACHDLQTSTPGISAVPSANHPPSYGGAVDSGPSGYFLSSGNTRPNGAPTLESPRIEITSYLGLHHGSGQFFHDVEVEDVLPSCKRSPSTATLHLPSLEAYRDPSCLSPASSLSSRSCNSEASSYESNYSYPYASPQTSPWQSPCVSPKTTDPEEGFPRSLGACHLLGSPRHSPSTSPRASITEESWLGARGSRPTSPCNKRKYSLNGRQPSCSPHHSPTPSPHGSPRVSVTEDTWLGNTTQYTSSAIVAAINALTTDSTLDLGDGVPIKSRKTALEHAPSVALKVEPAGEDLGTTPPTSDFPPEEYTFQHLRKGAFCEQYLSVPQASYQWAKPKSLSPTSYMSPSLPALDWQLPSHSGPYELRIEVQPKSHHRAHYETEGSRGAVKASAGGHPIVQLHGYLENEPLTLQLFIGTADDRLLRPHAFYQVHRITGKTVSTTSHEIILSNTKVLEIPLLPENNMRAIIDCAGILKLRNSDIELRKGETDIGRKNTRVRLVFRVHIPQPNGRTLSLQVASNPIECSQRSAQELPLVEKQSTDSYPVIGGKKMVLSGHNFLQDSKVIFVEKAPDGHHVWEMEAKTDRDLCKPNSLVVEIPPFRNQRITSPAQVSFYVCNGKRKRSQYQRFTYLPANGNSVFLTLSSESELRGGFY
Experiment: biotin pull-down on streptavidin beads, western blot
Type: biochemical
Conditions: labelled compound (biotin conjugate of rhein, linker only drawn); biotin alone as control; RAW264.7 lysate, 4 °C bead loading

O=C1N[C@H]2[C@H](CS[C@H]2CCCCC(=O)Oc2cccc3c2C(=O)c2c(O)cc(C(=O)O)cc2C3=O)N1 [Bio-Rhein, Biotinylated-Rhein]
biotin pull-down on streptavidin beads, western blot: The results of western immunoblotting indicated the direct interaction between rhein and NFATc1
